The source of these data is patent US5134150A, “Inhibition of the 5-lipoxygenase pathway” (priority 1989, dated 1992).

The test system of experiment [1] is area of infarction following coronary occlusion. The conditions noted are these: dogs; cited from earlier work.
In experiment [2] the test system is Arachidonic Acid-Induced Inflammation of the Mouse Ear. Put plainly: Arachidonic acid-induced mouse ear inflammation. The conditions noted are these: for inhibition in vivo at 50 mg/kg: Mus musculus, 1 h, Table 7A, read-out: % Inhibition of Ear Swelling. It is filed as in vivo, mouse (male Balb/c). An excerpt: (§1) In the following Examples where mice were used, they were male Balb/c mice (20-28 g), and where rats were used, they were male Lewis rats (180-210 g). All mice and rats were obtained from Charles River Breeding Laboratories, Kingston, N.Y. Within a single experiment, mice and rats were sex and age matched.
(§2) The compounds of Formula (I) were used either as the free base or in the appropriate salt form. Levamisole was used as the hydrochloride salt. The compounds were homogenized in 0.5% tragacanth. Compounds were administered by gavage at the indicated dose in a final volume of 10 ml/kg. Nordihydroguaiaretic acid (NDGA) was solubilized in dimethylacetamide and diluted with olive oil for subcutaneous administration.
Arachidonic acid in acetone ([…]) was applied to the inner surface of the left ear. The thickness of both ears was then measured with a dial micrometer one hour after treatment, and the data were expressed as the change in thickness (10^-3 cm) between treated and untreated ears.
Test compounds were given orally in 0.5% tragacanth at the times indicated in the text prior to the topical application of arachidonic acid.
Parenteral administration of compound was accomplished by subcutaneous injection of solution as indicated.

For experiment [3], the system named is 5-lipoxygenase and LTA4 synthetase. The experiment can be described thus: Di-HETE / LTB4 production by high speed supernatant of RBL-1 cells. It is filed as biochemical. The conditions noted are these: RBL-1 high speed supernatant; Table 9A; read-out: 5-LO IC50 (LTB4 production). On the procedure: (§3) For in vitro experiments, compounds were dissolved at appropriate concentrations in ethanol or DMSO (dimethylsulfoxide) (final concentration≤1.0%) and then diluted to final concentrations using the buffers indicated in the text.
(§4) The activities of these enzymes in extracts of RBL-1 cells were assayed using the method of Jakschik and Lee, Nature, 287, 51-52 (1980). RBL-1 cells were obtained from the American Type Culture Collection (#CRL 1378) and were grown at 37° C. (5% CO2 in air) in spinner culture in MEM supplemented with 10% heat inactivated fetal calf serum. Harvested cells were washed with 50 mM sodium phosphate buffer, pH 7.0, containing 1 mM EDTA and 0.1% gelatin, resuspended in fresh buffer (5×10^7 cells/ml) and disrupted by nitrogen cavitation using the Parr bomb at 750 psi for 10 min. The broken cell extract was then centrifuged at 10,000× g for 20 minutes (min) and the supernatant centrifuged at 100,000 xIg for 60 min. Aliquots (0.25 mls) of the supernatant were preincubated with or without drugs for 10 min, after which 10 μl CaCl2 (50 mM) was added and the reaction was initiated with 2.5 μl of 2.5 mM arachidonic acid-1-^14 C (final concentration was 25 μM; specific activity 20,000 dpm/nmole). After incubation for 3 min at 37° C., the reaction was terminated by addition of 2 volumes (0.5 ml) ice cold acetone and the sample was allowed to deproteinize on ice for 10 min prior to centrifugation at 1,000× g for 10 min. The deproteinized supernatant was adjusted to pH 3.5 with 2N formic acid and extracted with 2 volumes of ice cold ethyl acetate. The extracted samples were dried under argon, redissolved in ethyl acetate and applied to Whatman LK5D thin layer chromatography (TLC) plates which were developed using the A-9 solvent system [organic phase of ethyl acetate: 2,2,5-trimethylpentane:acetic acid: water (110:50:20:10)] described by Hamberg and Samuelsson, J. Biol. Chem., 241, 257-263 (1966). Arachidonic acid, 5-HETE, LTB4 and PGD2 were quantified with a Berthold LB 2832 autoscanner.
(§5) The 5-lipoxygenase and LTA4 synthetase activities were further studied under the following conditions. An additional centrifugation of the RBL-1 supernatant was run at 100,000× g for 60 min, to remove the particulate cyclooxygenase activity. Sample incubation was done under conditions similar to those described above, i.e., 2 mM CaCl2 and […] arachidonic acid-1-^14 C, however, with an incubation time of 5 min at 5° C. Under these conditions, only the 5-lipoxygenase pathway metabolites were detectable. The 5-HETE and di-HETEs were formed at a linear rate, and substantial amounts of the arachidonic acid-1-^14 C substrate were utilized.

Experiment [4] deals with LTC4 production by human monocytes. Put plainly: LTC4 production by human monocytes. It is filed as cell-based. More on the design: key to IC50, LTC4 production: NS = not significant. The settings on record: A23187-stimulated human monocytes; for IC50: Monocyte. The protocol: The compounds of Formula (I) were evaluated for their ability to inhibit the production of LTC4 by human monocytes according to the following assay. Human monocytes were prepared from whole blood supplied by the American Red Cross. The blood was fractinated by a two-step procedure employing sedimentation on Ficoll followed by sedimentation on Percoll. […] Non-adherent cells were removed by washing. […] When drugs were evaluated, they were added to the cells 30 minutes prior to the A23187. Supernatants were collected, […] by centrifugation and stored frozed at -20° C. until assay. The LTC4 content was determined by using a New England Nuclear Leukotriene C-4 (^3 H) RIA Kit as per instructions.

Experiment [5] relates to Infiltration of Polymorphonuclear Leukocytes into Sites of Carrageenan-Induced Inflammation. Put plainly: Mouse carrageenan peritonitis (PMN infiltration). The conditions noted are these: for PMN infiltration, result in words: carrageenan peritonitis, mice. The class given is in vivo, mouse (male Balb/c).
Excerpt: as §1, §2
Mice were pretreated with either the test compound or vehicle one hour before the intraperitoneal injection of a 1.0% carrageenan suspension in saline (0.2 ml/mouse). Mice were sacrificed by cervical dislocation two hours after injection, and 3.0 ml of phosphate buffered saline, without Ca^++ or Mg^++, was injected into the peritoneum. Following massage, a 2.0 ml aliquot of the lavage fluid was removed, and the total cell count determined on a Coulter counter and differential cell count determined by microscopic examination of Giesma-stained slides.

Experiment [6] deals with psoriasis. The conditions noted are these: in vivo; cited from earlier work.
In experiment [7] the test system is lipoxygenase. The settings on record: in vitro; cited from earlier work.
The target in experiment [8] is T1, 5-Lipoxygenase (Rattus norvegicus, UniProt P12527).
T1 construct: The activities of these enzymes in extracts of RBL-1 cells were assayed; host or cells: RBL-1
T1 sequence (P12527 1-673): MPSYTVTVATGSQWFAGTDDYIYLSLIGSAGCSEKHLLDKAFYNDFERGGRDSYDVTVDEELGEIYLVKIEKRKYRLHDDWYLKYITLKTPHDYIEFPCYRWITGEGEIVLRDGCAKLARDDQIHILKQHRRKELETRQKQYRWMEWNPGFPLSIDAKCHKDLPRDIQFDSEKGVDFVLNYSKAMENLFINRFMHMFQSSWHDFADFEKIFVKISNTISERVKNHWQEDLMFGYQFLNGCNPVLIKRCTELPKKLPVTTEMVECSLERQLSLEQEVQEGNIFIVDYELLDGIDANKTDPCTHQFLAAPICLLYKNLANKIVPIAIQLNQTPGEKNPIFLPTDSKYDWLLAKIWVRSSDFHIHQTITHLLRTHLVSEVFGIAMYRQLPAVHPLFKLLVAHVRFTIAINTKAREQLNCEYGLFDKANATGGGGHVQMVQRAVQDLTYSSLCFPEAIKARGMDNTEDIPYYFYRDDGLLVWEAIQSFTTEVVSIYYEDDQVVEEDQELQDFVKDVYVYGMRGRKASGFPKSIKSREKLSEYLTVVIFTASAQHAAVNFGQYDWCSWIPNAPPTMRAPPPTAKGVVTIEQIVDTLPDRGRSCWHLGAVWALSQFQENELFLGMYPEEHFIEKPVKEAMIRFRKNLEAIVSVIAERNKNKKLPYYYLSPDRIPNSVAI
Put plainly: 5-HETE production by high speed supernatant of RBL-1 cells. The class given is biochemical. The settings on record: for IC50: RBL-1 high speed supernatant, Table 8A. The protocol: as §3, §4, §5

Experiment [9] relates to LTB4 and 5-HETE production. The settings on record: in vitro; cited from earlier work.
Experiment [10] concerns rheumatoid arthritis. The settings on record: preliminary observation; cited from earlier work.
The subject of experiment [11] is Experimental Allergic Encephalomyelitis Induced in Female Lewis Rats. The experiment can be described thus: Experimental allergic encephalomyelitis, hindleg paralysis. The conditions noted are these: 0.3 mg/kg/day, p.o. It is filed as in vivo, rat (female Lewis). On the procedure:
EAE is induced in Female (Charles River) Lewis rats by a single intradermal injection of 0.1 ml of an encephalitogenic emulsion consisting of equial parts of a 50% w/v homogenate of guinea pig spinal cord and mid-brain in 0.5% aqueous phenol and Freund's complete adjuvant (4 mg/ml killed, dried M. butyricum) into a hindpaw (left) footpad. […] Any animal which becomes paralyzed during the course of the experiment is considered to have developed EAE whether or not the paralysis is permanent. Test compounds are administered daily beginning on the day of injection, for 19 days, exclusive of days 5, 6 12 and 13. Drug activity is determined by comparing the indicidence of EAE (paralysis) of the treated group with a control (vehicle) group. The level of significant difference between the treated groups and control groups is determined by a Chi-square test using a 2×2 contingency table. Body weight changes from day 0 are also statistically compared to the control group using a Student "t" test.

Where [12] appears, read: 25 mg/kg, p.o., pretreated at 2 hrs.

Where two headings read alike, the source gives them in different places.

With `NC1=NN(c2cccc(C(F)(F)F)c2)CC1` [BW755-C], the “Area of infarction, in words” value in experiment [1] was “reduced”.

In the case of `CCNc1ccc(-c2nc3n(c2-c2ccc(NCC)cc2)CCS3)cc1` [Compound 17], the inhibition in vivo at 50 mg/kg in experiment [2] (50 mg/kg s.c. or i.p.) is 38%. Also, the IC50 in experiment [3] came to 0.1 µM; in [4] it was 1.2 µM.

As to `CC(=O)OC[C@H]1O[C@@H]([S-])[C@H](OC(C)=O)[C@@H](OC(C)=O)[C@@H]1OC(C)=O.CCP(CC)CC.[Au+]` [Auranofin], in [5] (2 mg Au/kg, p.o., Table 3), the “% Change (PMN)” value was -6% and the “PMN (Mean ± S.D.)” value is reported as 7.50 ± 1.57 × 10^-5 /ml. In addition, the “PMN infiltration, result in words” value in experiment [5] is recorded as “did not impair inflammatory cell infiltration”.

As to `CC(C(=O)O)c1ccc2oc(-c3ccc(Cl)cc3)nc2c1` (stereo not shown) [Benoxaprofen], in experiment [6], the “Effect on psoriasis, in words” value was “promising effect”. Further, in experiment [7], the “Lipoxygenase inhibitory activity, in words” value was “in vitro lipoxygenase inhibitory activity”.

In the case of `[O-][S+]1CCn2c1nc(-c1ccc(F)cc1)c2-c1ccncc1` (stereo not shown) [Compound 28, 5-(4-pyridyl)-6-(4-fluorophenyl)-2,3-dihydroimidazo[2,1-b]thiazole-S-oxide], in experiment [2] (50 mg/kg s.c. or i.p.), the inhibition in vivo at 50 mg/kg came to 69%. The IC50 in [3] is 1000 µM; in [4] it was 0.5 µM.

Regarding `Fc1ccc(-c2nc3n(c2-c2ccc(F)cc2)CCS3)cc1` [Compound 26], the 50% inhibitory concentration (IC50) in experiment [8] and in experiment [3] was over 10 µM each time. Moreover, the inhibition at 10 µM in experiment [8] (read-out: inhibition of 5-HETE at 10 μM, 10 μM, Table 8A footnote) is 46%.

`COc1ccc(-c2nc3n(c2-c2ccncc2)CCS3)cc1` [Compound 18]: in experiment [2] (po, 50 mg/kg p.o.), the inhibition in vivo at 50 mg/kg came out at 40%. Besides, the IC50 was found to be 1.9 µM in experiment [3] and 9.9 µM in experiment [4].

`O=C(O)c1cc(/N=N/c2ccc(S(=O)(=O)Nc3ccccn3)cc2)ccc1O` [Sulfasalazine]: the “Inhibition of LTB4 and 5-HETE production, in words” value in experiment [9] is “inhibit LTB4”. For the same molecule, the “Efficacy in rheumatoid arthritic patients, in words” value in [10] is on record as “efficacy, including remission”.

`CN(Cc1cnc2nc(N)nc(N)c2n1)c1ccc(C(=O)N[C@@H](CCC(=O)O)C(=O)O)cc1` [Methotrexate]: in [11], the “Hindleg paralysis - cumulative incidence, day 9 to 13” value was 0/11 and the “Hindleg paralysis - cumulative incidence, day 14 to 18” value is given as 0/11.

For the molecule `CC(Cc1ccc(O)c(O)c1)C(C)Cc1ccc(O)c(O)c1` (stereo not shown) [NDGA, Nordihydroguaiaretic acid], the “PMN infiltration, result in words” value in [5] is given as “effective”.

Consider `O=S1(=O)CCn2c1nc(-c1ccc(F)cc1)c2-c1ccncc1` [Compound 29, 5-(4-pyridyl)-6-(4-fluorophenyl)-2,3-dihydroimidazo[2,1-b]thiazole-S-dioxide], for which the inhibition in vivo at 50 mg/kg in experiment [2] (po, 50 mg/kg p.o.) was determined as 67%. For the same molecule, the IC50 in [3] was over 100 µM; in experiment [4] it was 0.5 µM.

`FC(F)(F)c1ccc(-c2nc3n(c2-c2ccc(C(F)(F)F)cc2)CCS3)cc1` [Compound 27]: in experiment [8], the half-inhibitory concentration (IC50) stood at 28 µM.

`Fc1ccc(-c2c(-c3ccncc3)nc3n2CCS3)cc1` [Compound 12]: in experiment [2] (50 mg/kg s.c. or i.p.), the inhibition in vivo at 50 mg/kg stood at 58%. Further, the IC50 in experiment [3] turned out to be 17 µM. For the same molecule, the “IC50, LTC4 production” value in experiment [4] is listed as “NS”.

Turning to `C[C@@H]1C[C@H]2[C@@H]3CCC4=CC(=O)C=C[C@]4(C)[C@@]3(F)[C@@H](O)C[C@]2(C)[C@@]1(O)C(=O)CO` [Dexamethasone, reference compound], the “PMN infiltration, result in words” value in experiment [5] is “effective”. In experiment [2] (setting [12]), the “% Change (ear thickness)” value was -35% and the “Increase in Ear Thickness at 1 Hour” value was 18.2 ± 4.1 × 10-3 cm. Also, the “Mouse ear edema, result in words” value in [2] (mouse, in vivo) is “only moderately effective”.

In general, IC50 refers to the concentration that inhibits the measured activity by half. Broadly, the inhibition is how much of the control response was suppressed.
